Measurements as given in publication PMC11241340, “The Discovery of Novel α2a Adrenergic Receptor Agonists Only Coupling to Gαi/O Proteins by Virtual Screening” (International Journal of Molecular Sciences, 2024).
Residue numbers refer to the chain shown, from its start. pIC50: −log10 of the molar value.

Assays:
α2B-AR [1] = molecular target: T1, α2B-AR (Homo sapiens, UniProt P18089); assay: GloSensor cAMP assay in HEK293 cells transfected with α2B-AR; type: cell-based; design: Flag; expressed in transfected cells; host or cells: HEK293; conditions: for effect of pretreatment on cAMP accumulation induced by DMED (antagonist activity): α2B-AR-HEK293 cells, 10 μM; for effect on cAMP accumulation (agonist activity) in α2B-AR cells: HEK293 α2B-AR, DMED 10^−10–10^−7M, P300–2342 10^−10–10^−5M
T1 sequence (P18089 1-450): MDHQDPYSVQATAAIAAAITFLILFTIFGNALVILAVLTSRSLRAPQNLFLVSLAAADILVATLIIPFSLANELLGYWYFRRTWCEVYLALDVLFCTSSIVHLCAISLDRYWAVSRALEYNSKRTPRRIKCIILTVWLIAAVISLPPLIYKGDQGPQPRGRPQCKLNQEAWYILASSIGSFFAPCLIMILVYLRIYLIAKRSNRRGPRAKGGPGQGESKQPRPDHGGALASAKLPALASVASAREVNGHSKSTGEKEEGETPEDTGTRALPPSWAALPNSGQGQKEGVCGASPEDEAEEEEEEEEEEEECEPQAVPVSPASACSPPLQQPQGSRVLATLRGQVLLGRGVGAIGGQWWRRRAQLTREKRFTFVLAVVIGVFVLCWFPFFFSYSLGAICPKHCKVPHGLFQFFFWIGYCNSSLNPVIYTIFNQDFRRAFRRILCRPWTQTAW

[2] = molecular target: T2, α2A-AR mutant V114A (α2AV114A-AR) (Homo sapiens, UniProt P08913, V129A); assay: GloSensor cAMP assay in HEK293 cells transfected with α2AV114A-AR; type: cell-based; conditions: forskolin 10 μM
T2 construct: Flag; expressed in transfected cells; host or cells: HEK293
T2 sequence (P08913 1-465 V129A): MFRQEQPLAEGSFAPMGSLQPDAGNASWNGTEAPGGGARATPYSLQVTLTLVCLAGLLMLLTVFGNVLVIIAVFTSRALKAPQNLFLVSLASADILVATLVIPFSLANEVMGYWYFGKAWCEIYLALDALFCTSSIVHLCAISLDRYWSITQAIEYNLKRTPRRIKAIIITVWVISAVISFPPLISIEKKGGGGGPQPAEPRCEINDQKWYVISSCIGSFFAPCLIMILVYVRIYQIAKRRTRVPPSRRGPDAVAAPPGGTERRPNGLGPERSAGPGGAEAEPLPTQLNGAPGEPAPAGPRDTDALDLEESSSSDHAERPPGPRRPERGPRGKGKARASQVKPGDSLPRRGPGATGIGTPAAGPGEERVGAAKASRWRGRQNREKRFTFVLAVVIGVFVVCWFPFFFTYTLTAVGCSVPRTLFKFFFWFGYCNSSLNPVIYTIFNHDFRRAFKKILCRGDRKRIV
Procedure: (§1) According to the GloSensor cAMP biosensor (Promega, Shanghai, China) manufacturer protocols, HEK293 cells were co-transfected with the pGloSensor-22F cAMP plasmid (Promega, E1171) and pCMV6 Entry-Flag-α2A-AR. After 24 h, the cells were seeded in white 96-well plates. The next day, the cell media were replaced by 90 μL of fresh DMEM with 2% v/v GloSensor cAMP reagent (Promega, E1290) and incubated for 60 min at 37 °C. Before drug stimulation, an initial measurement of the baseline signal was detected. […] PTX 500 ng/mL pretreatment for 24 h was used to assay the chemical effects on Gi coupling following α2A-AR activation. Two mutations, V114A and Y394A were introduced into the α2A-AR genes, respectively, using standard QuickChange PCR. […] In each experiment, the cAMP assay used pcDNA3.1 myc/hisB transfected cells as a negative control and cells stimulated with 10 μM of forskolin as a positive control. The signal was read using a Victor 2D Instrument (PerkinElmer) at 675 nm. The production of cAMP% was calculated (the signal value after chemicals addition–baseline signal value)/the baseline signal value *100 as described in our previous study.

[3] = molecular target: T3, α2A-AR mutant Y394A (α2AY394A-AR) (Homo sapiens, UniProt P08913, Y409A); assay: GloSensor cAMP assay in HEK293 cells transfected with α2AY394A-AR; type: cell-based; conditions: forskolin 10 μM
T3 construct: Flag; expressed in transfected cells; host or cells: HEK293
T3 sequence (P08913 1-465 Y409A): T2 sequence (P08913 1-465 V129A) with A129V, Y409A
Procedure: as §1

C57/B6 mice = conditions: 432 nmol/kg, i.p.
Procedure: C57BL/6 mice (20–22 g) were purchased from the SPF biotechnology co., LTD (Beijing, China). All the animals were housed in an alternating 12 h light/12 h dark cycle room, which was maintained in a climate-controlled environment (25 ± 1 °C). Animals had free access to water and food. All the experimental procedures were reviewed and approved by the ethics committee and institutional animal care and use committee of the Beijing Institute of Pharmacology and Toxicology, Beijing, China (IACUC of AMMS–06–2017–001). Animals were assigned to groups randomly before testing. Testing occurred within the same approximate time of day between experiments. The experimenter was blinded to treatment throughout the course of behavioral testing.
The LORR in C57/B6 mice were used to study the effects of screening compounds.

α2A-AR [4] = molecular target: T4, α2A-AR (Homo sapiens, UniProt P08913); assay: GloSensor cAMP assay in HEK293 cells transfected with α2A-AR; type: cell-based; design: Flag; expressed in transfected cells; host or cells: HEK293; conditions: for decrease in cAMP accumulation after pertussis toxin pretreatment: PTX 500 ng/mL, 24 h; for increase of cAMP accumulation (Gαs coupling) / decrease of cAMP accumulation stimulated by forskolin (Gαi/o coupling): α2A-AR HEK293, P300–2342 10^−10–10^−5M; for increase of cAMP accumulation (Gαs coupling): DMED 10^−8–10^−5M; for decrease of cAMP accumulation stimulated by forskolin (Gαi/o coupling): FSK 10^−5M, DMED 10^−13–10^−9M
T4 sequence (P08913 1-465): T2 sequence (P08913 1-465 V129A) with A129V
Procedure: as §1

α2B-AR [5] = molecular target: T1, α2B-AR; assay: Competitive inhibition of [3H] Rauwolscine binding, CHO-K1 membranes
C57BL/6 mice = assay: Spontaneous locomotor activity of mice; type: in vivo, mouse; conditions: for inhibition of mice locomotor activity compared to solvent: 10 nmol/mice, i.c.v.
From the text: Animals had free access to water and food. […] Animals were assigned to groups randomly before testing.

α2A-AR [6] = molecular target: T4, α2A-AR; assay: Competitive inhibition of [3H] Rauwolscine binding, CHO-K1 membranes

Compound	effect of pretreatment on cAMP accumulation induced by DMED (antagonist activity) (α2B-AR [1])	cAMP production in α2AV114A-AR compared to α2A-AR wild type [2]	decrease of cAMP production in α2AV114A-AR cells [2]	cAMP production in α2AY394A-AR compared to α2A-AR wild type [3]	decrease of cAMP production in α2AY394A-AR cells [3]	LORR induced in mice (C57/B6 mice)	decrease in cAMP accumulation after pertussis toxin pretreatment (α2A-AR [4])	increase of cAMP accumulation (Gαs coupling) (α2A-AR [4])	decrease of cAMP accumulation stimulated by forskolin (Gαi/o coupling) (α2A-AR [4])	effect on cAMP accumulation (agonist activity) in α2B-AR cells (α2B-AR [1])	pIC50 (α2B-AR [5])	inhibition of mice locomotor activity compared to solvent (C57BL/6 mice)	pIC50 (α2A-AR [6])	maximum binding inhibition of [3H] Rauwolscine, α2A-AR (α2A-AR [6])	maximum binding inhibition of [3H] Rauwolscine, α2B-AR (α2B-AR [5])	antagonism of the locomotor inhibition by α2-AR antagonist atipamezole (C57BL/6 mice; compound 10 nmol/mice i.c.v., atipamezole 0.2 mg/kg i.p.)	locomotor activity of mice (abstract statement) (C57BL/6 mice; p < 0.05, dose not given)	effect on cAMP accumulation in presence of α2A-AR selective antagonist BRL44408 (α2A-AR [4]; BRL44408 1 μM)
COc1ccccc1N1CCN(CCN2C(=O)c3ccccc3C(C)(C)C2=O)CC1 [ARC239, reference compound]	decreased	–	–	–	–	–	–	–	–	–	–	–	–	–	–	–	–	–
Cc1cccc([C@H](C)c2cnc[nH]2)c1C [DMED, Dexmedetomidine, reference compound]	–	increased	did not decrease	increased	did not decrease	50%	abolished	concentration-dependently increased	concentration-dependently decreased	concentration-dependently increased	7.83	–	–	–	–	–	–	–
CCN(CC)CCNC(=O)c1ccc2c(c1)n(Cc1ccccc1)c(=O)c1ccnn12 [P300–1500]	no effects	–	–	–	–	–	–	without increasing	decreased	no activation	4.72	30%–60%	5.02	90%	85%	–	–	–
CCN(CC)CCNC(=O)c1ccc2c(c1)n(Cc1cccc(F)c1)c(=O)c1ccnn12 [P300–2342]	slightly decreased	–	did not decrease	–	did not decrease	–	abolished	without increasing	concentration-dependently decreased	no effect	–	–	–	83%	71%	could be antagonized	significantly decreased	antagonized
O=C(NCCN1CCCCC1)c1ccc2c(c1)n(Cc1cccc(F)c1)c(=O)c1ccnn12 [P300–2344]	no effects	–	–	–	–	–	–	without increasing	decreased	no activation	4.80	30%–60%	4.95	91%	86%	–	–	–
CN(C)CCNC(=O)c1ccc2c(c1)n(Cc1cccc(F)c1)c(=O)c1ccnn12 [T226–1970]	slightly decreased	–	–	–	–	–	–	without increasing	decreased	no activation	5.07	30%–60%	4.71	85%	94%	–	–	–
